These results are taken from ChEMBL document CHEMBL2073958, “Active transport of imatinib into and out of cells: implications for drug resistance” (Blood, 2004).

For the series, the target named is ATP-dependent translocase ABCB1 (Homo sapiens, UniProt P08183). Nature of the series: TP_TRANSPORTER: transepithelial transport in MDR1-transfected MDCKII cells. The format is functional, cell-based. The conditions noted are these: dog, mdck-ii.
Chain of ATP-dependent translocase ABCB1 (P08183 whole entry): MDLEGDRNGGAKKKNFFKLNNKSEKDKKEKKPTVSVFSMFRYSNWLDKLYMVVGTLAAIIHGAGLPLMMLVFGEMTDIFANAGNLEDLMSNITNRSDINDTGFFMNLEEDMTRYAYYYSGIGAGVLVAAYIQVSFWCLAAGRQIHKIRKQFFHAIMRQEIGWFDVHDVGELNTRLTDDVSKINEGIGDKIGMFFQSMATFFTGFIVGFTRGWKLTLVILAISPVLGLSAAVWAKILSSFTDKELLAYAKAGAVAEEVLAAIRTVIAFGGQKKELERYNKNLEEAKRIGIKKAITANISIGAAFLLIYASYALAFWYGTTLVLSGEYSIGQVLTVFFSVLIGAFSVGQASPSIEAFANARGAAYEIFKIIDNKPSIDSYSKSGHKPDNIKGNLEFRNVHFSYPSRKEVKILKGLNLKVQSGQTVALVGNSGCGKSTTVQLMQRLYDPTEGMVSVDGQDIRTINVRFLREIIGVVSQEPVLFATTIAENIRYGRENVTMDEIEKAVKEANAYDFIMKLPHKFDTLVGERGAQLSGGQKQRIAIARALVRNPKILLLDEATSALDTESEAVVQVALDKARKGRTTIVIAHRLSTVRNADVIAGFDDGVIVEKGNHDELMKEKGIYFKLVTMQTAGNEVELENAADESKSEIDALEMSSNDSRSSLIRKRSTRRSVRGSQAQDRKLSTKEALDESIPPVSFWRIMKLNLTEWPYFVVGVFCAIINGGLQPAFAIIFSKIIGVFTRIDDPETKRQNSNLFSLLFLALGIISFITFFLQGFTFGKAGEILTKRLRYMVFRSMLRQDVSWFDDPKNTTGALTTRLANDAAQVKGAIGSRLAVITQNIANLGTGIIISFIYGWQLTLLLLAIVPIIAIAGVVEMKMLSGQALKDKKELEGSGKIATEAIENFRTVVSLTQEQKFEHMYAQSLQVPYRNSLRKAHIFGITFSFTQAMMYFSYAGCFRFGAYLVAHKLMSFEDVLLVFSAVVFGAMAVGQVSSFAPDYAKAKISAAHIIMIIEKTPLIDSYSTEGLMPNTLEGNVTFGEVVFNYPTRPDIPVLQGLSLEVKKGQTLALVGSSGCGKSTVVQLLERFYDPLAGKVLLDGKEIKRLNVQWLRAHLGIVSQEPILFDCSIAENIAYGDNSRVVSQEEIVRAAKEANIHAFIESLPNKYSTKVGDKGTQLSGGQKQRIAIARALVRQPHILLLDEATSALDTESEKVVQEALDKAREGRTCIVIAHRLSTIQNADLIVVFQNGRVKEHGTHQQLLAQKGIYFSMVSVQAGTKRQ

Turning to `Cc1ccc(NC(=O)c2ccc(CN3CCN(C)CC3)cc2)cc1Nc1nccc(-c2cccnc2)n1` [IMATINIB], the Activity result is “substrate [+]”.
